Literature values as cited in US12115137B2, “Synergistic combinations of atorvastatin and cannabidiol (CBD)” (Indication BioScience LLC, priority 2016, dated 2024).

Experiments:
[1] = oral, humans
CYP3A4 = CYP3A4 (Homo sapiens, UniProt P08684); settings: Yamaori et al. 2011
CYP2C19 = CYP2C19 (Homo sapiens, UniProt P33261); settings: Jiang et al. 2013
CYP2C9 = CYP2C9 (Homo sapiens, UniProt P11712); settings: Jiang at 333 and references cited
[2] = with potent CYP3A4 inhibitors such as itraconazole
[3] = not given; remark: listed apart in the source

Sequence of CYP2C9 (P11712 whole entry): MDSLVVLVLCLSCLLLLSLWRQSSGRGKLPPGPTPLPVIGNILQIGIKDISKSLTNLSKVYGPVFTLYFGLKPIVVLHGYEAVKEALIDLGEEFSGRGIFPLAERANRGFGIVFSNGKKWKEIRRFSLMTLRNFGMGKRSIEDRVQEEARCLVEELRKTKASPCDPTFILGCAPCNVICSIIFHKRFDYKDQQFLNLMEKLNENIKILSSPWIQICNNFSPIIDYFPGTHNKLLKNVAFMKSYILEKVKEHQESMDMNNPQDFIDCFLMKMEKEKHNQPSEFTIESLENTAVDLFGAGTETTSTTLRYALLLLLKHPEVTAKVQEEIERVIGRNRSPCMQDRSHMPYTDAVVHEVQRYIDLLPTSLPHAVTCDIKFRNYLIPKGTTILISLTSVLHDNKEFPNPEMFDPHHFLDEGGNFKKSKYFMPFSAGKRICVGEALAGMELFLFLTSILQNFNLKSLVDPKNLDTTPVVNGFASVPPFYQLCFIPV
Sequence of CYP2C19 (P33261 whole entry): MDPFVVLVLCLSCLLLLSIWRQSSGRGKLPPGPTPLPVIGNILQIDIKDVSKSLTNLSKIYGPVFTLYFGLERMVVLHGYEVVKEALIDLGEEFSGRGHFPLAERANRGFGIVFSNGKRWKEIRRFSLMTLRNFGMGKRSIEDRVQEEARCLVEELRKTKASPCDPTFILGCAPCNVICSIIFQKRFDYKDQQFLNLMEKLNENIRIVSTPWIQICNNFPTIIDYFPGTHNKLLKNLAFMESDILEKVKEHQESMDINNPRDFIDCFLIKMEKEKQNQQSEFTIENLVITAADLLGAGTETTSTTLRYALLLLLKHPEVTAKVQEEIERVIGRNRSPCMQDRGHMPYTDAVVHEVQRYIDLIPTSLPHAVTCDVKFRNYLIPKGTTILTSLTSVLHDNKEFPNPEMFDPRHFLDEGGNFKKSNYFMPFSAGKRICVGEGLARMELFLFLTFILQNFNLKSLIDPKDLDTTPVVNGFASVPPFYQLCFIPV
Sequence of CYP3A4 (P08684 whole entry): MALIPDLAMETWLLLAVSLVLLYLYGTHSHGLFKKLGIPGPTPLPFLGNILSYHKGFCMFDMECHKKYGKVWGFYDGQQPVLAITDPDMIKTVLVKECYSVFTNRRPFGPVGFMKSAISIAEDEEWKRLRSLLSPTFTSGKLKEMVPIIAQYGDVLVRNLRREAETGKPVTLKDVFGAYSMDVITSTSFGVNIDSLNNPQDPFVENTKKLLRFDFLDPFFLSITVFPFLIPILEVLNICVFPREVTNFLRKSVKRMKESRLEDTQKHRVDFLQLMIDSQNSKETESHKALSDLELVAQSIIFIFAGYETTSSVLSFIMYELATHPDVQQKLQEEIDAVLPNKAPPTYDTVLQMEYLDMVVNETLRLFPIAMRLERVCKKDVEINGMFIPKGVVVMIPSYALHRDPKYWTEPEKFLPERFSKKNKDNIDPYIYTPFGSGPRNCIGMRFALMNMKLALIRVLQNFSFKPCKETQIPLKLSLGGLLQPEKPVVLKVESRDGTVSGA

Question: With `C=C(C)[C@@H]1CCC(C)=C[C@H]1c1c(O)cc(CCCCC)cc1O` [CBD, 2-[(1R,6R)-6-isopropenyl-3-methylcyclohex-2-en-1-yl]-5-pentylbenzene-1,3-diol] as the compound, how does the “bioavailability of CBD administered orally” value [1] read?
Answer: Its value is “approximately 6%”.

Question: And the “increase in plasma concentration of CBD” value (with ketoconazole, a strong inhibitor of CYP3A4)?
Answer: Its value is “about two-fold”.

Question: What about the “reduction of CBD levels” value (with rifampin, a CYP3A4 inducer) of the same compound?
Answer: The value was 50-60%.

Question: And the “inhibition of CYP3A4” value (CYP3A4)?
Answer: Its value is “potent inhibitor”.

Question: And the “inhibition of CYP2C19” value (CYP2C19)?
Answer: Its value is “potent inhibitor”.

Question: And the “inhibition of CYP2C9” value (CYP2C9)?
Answer: The value was “potent inhibitor”.

Question: With `CC(C)c1c(C(=O)Nc2ccccc2)c(-c2ccccc2)c(-c2ccc(F)cc2)n1CC[C@@H](O)C[C@@H](O)CC(=O)O` [atorvastatin] as the compound, how does the “increase in statin serum concentration” value [2] read?
Answer: Its value is “two- to four-fold”.

Question: Which “deaths attributed to kidney failure from drug-related rhabdomyolysis” value ([3]; before market withdrawal in 2001) does the source give for `COCc1c(C(C)C)nc(C(C)C)c(/C=C/[C@@H](O)C[C@@H](O)CC(=O)O)c1-c1ccc(F)cc1` [cerivastatin] here?
Answer: Its value is 52 deaths.

Question: And the “rate of fatal rhabdomyolysis relative to other approved statins” value ([3]; compared with other approved statins)?
Answer: The value was “ten times more common”.
